From the supplement of paper PMC10307832

Tests used:
Test in all cases: relative viability (nuclei count vs DMSO), 5 days (fraction); higher = more cells survive
[1] = compound: O=c1[nH]cc(F)c(=O)[nH]1 [5-Fluorouracil] + Cc1nc(NC(=O)N2CCC[C@H]2C(N)=O)sc1-c1ccnc(C(C)(C)C(F)(F)F)c1 [Alpelisib] (partner 2 µM)
In short: (§1)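 Lung cancer cell lines in 1536-well plates got either a single drug or a fixed anchor-drug dose together with five library-drug doses (not always all listed) in √10 steps, by pin tool, on the day after seeding. Nuclei were counted after 5 days, and relative viability is the treated-to-vehicle ratio of nuclei counts. Values are medians of duplicate plates.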

[2] = compound: O=c1[nH]cc(F)c(=O)[nH]1 [5-Fluorouracil] + O=C(CCCCCCC(=O)Nc1ccccc1)NO [Vorinostat] (partner 1 µM)
In short: as §1

Sulindac + Alpelisib = compound: CC1=C(CC(=O)O)c2cc(F)ccc2/C1=C\c1ccc([S+](C)[O-])cc1 [Sulindac] + Cc1nc(NC(=O)N2CCC[C@H]2C(N)=O)sc1-c1ccnc(C(C)(C)C(F)(F)F)c1 [Alpelisib] (partner 2 µM)
In short: as §1

Sulindac + Pemetrexed = compound: CC1=C(CC(=O)O)c2cc(F)ccc2/C1=C\c1ccc([S+](C)[O-])cc1 [Sulindac] + Nc1nc2[nH]cc(CCc3ccc(C(=O)N[C@@H](CCC(=O)O)C(=O)O)cc3)c2c(=O)[nH]1 [Pemetrexed] (partner 0.2 µM)
In short: as §1

5-Fluorouracil + OSI-027 = compound: O=c1[nH]cc(F)c(=O)[nH]1 [5-Fluorouracil] + COc1cccc2cc(-c3nc([C@H]4CC[C@H](C(=O)O)CC4)n4ncnc(N)c34)[nH]c12 [OSI-027] (partner 0.5 µM)
In short: as §1

UMC-11
relative viability ([1]; first compound 0.02 µM): 0.792 | relative viability ([1]; first compound 0.2 µM): 0.645 | relative viability ([1]; first compound 2 µM): 0.326 | relative viability ([2]; first compound 0.02 µM): 0.374 | relative viability ([2]; first compound 0.2 µM): 0.325 | relative viability ([2]; first compound 0.6325 µM): 0.244 | relative viability (Sulindac + Alpelisib; first compound 0.08 µM): 1.1 | relative viability (Sulindac + Alpelisib; first compound 0.253 µM): 1.05 | relative viability (Sulindac + Alpelisib; first compound 0.8 µM): 0.876 | relative viability (Sulindac + Alpelisib; first compound 2.53 µM): 0.98 | relative viability (Sulindac + Alpelisib; first compound 8 µM): 1.11 | relative viability (Sulindac + Pemetrexed; first compound 0.08 µM): 0.853 | relative viability (Sulindac + Pemetrexed; first compound 0.253 µM): 0.808 | relative viability (Sulindac + Pemetrexed; first compound 0.8 µM): 0.582 | relative viability (Sulindac + Pemetrexed; first compound 2.53 µM): 0.747 | relative viability (Sulindac + Pemetrexed; first compound 8 µM): 0.868 | relative viability (5-Fluorouracil + OSI-027; first compound 0.02 µM): 0.445 | relative viability (5-Fluorouracil + OSI-027; first compound 0.2 µM): 0.477 | relative viability (5-Fluorouracil + OSI-027; first compound 0.6325 µM): 0.406 | relative viability (5-Fluorouracil + OSI-027; first compound 2 µM): 0.372
